# Experimental data as given in US12419931B2, “Anti-cancer composition” (ACUPHARM INTERNATIONAL PROPRIETARY LIMITED, priority 2020, dated 2025).
# System: cultured tissue from needle biopsy, Breast DCIS papillary neoplasm
# Test: dose response study with cumulative cell death on cultured patient biopsy tissue (patient 19055)
# Assay type: cell-based, human
# Details: in vitro cultured biopsy sample, patient 19055, Breast DCIS papillary neoplasm
# Experimental: Comparative studies were performed using curcumin extract as described above (referred to as ACPJL 08), Sutherlandia leaf extract in water (referred to as ACPJL 35), Sutherlandia leaf extract in 50% ethanol and water solution (referred to as ACPJL 28), Sutherlandia leaf extract in 90% ethanol and water solution (referred to as ACPJL 07) and a combinatorial formulation using the curcumin extract and Sutherlandia leaf extract in water and alcohol according to this invention (referred to as ACPJL 20). These extracts were compared to a number of known botanical isolates with anti-cancer activity, as well as a number of known anti-cancer drugs, using a dose response design with cumulative cell death as the dependent variable. These studies were conducted on in vitro samples of cultured tissue, taken as biopsy samples from patients as part of a standard culture and testing process done in order to optimise treatment.
# A representative sample of such a study is provided herein below.
# Summary of Study of Patient with Assigned Number 19055
# Patient from whom sample was obtained was a person presenting with a diagnosis of Breast DCIS papillary neoplasm. The sample was obtained via needle biopsy, before being cultured.
row,Compound,overall assessment in standard culture and testing process
1,COc1cc2c(Oc3ccc4[nH]c(C)cc4c3F)ncnc2cc1OCCCN1CCCC1 [Cediranib],potential benefit
2,Nc1nc(Cl)nc2c1ncn2[C@@H]1O[C@H](CO)[C@@H](O)[C@@H]1F [Clofarabine],potential benefit
3,CC(=O)O[C@@]12CO[C@@H]1C[C@H](O)[C@@]1(C)C(=O)[C@H](O)C3=C(C)[C@@H](OC(=O)[C@H](O)[C@@H](NC(=O)OC(C)(C)C)c4ccccc4)C[C@@](O)([C@@H](OC(=O)c4ccccc4)[C@H]21)C3(C)C [Docetaxel],potential benefit
4,COc1cc2ncnc(Nc3ccc(F)c(Cl)c3)c2cc1OCCCN1CCOCC1 [Gefitinib],potential benefit
5,O=C1c2c(O)ccc(O)c2C(=O)c2c(NCCNCCO)ccc(NCCNCCO)c21 [Mitoxantrone],potential benefit
6,COC(=O)c1ccc2c(c1)NC(=O)/C2=C(\Nc1ccc(N(C)C(=O)CN2CCN(C)CC2)cc1)c1ccccc1 [Nintedanib],good efficacy and a positive dose response curve
7,CC(=O)O[C@H]1C(=O)[C@@]2(C)[C@H]([C@H](OC(=O)c3ccccc3)[C@]3(O)C[C@H](OC(=O)[C@H](O)[C@@H](NC(=O)c4ccccc4)c4ccccc4)C(C)=C1C3(C)C)[C@]1(OC(C)=O)CO[C@@H]1C[C@@H]2O [Paclitaxel],potential benefit
8,CC[C@]1(O)C[C@H]2CN(CCc3c([nH]c4ccccc34)[C@@](C(=O)OC)(c3cc4c(cc3OC)N(C=O)[C@H]3[C@@](O)(C(=O)OC)[C@H](OC(C)=O)[C@]5(CC)C=CCN6CC[C@]43[C@@H]65)C2)C1 [Vincristine],potential benefit
9,CCC1=C[C@@H]2CN(C1)Cc1c([nH]c3ccccc13)[C@@](C(=O)OC)(c1cc3c(cc1OC)N(C)[C@H]1[C@@](O)(C(=O)OC)[C@H](OC(C)=O)[C@]4(CC)C=CCN5CC[C@]31[C@@H]54)C2 [Vinorelbine],potential benefit
10,O=C(CCCCCCC(=O)Nc1ccccc1)NO [Vorinostat],potential benefit
